Values after ≈ are worked out from the molar mass of the structure shown. Where two headings read alike, the source gives them in different places. Blank lines part the entries; values can stand above or below the compound they belong to.
Key:
Format in all cases: physicochemical
[1] = Accelerated stability testing (HPLC assay and purity); details: for Assay (%): assay criterion 95%-105%
Protocol: The stability of Phosphate Polymorphic Form and Free Base Polymorphic Form A were evaluated under accelerated conditions.
Appropriately 2 mg of compounds were accurately weighed into a glass vial, then added diluents (ACN/water, 50/50) and sonicated for 2 minutes to dilute the target concentration of 0.2 mg/mL. The solution was equilibrated to room temperature and then the purity of the compounds was determined by HPLC.

[2] = Intrinsic dissolution rate in SGF; details: 37° C., 100 rpm, linear scope within 2 to 120 min
Protocol: About 100 mg of Free Base Polymorphic Form A or Phosphate Polymorphic Form A was weighed into the intrinsic dissolution apparatus and the sample compressed for 1 minute with a compression force of ˜4 MPa to form a compacted pellet within the stainless-steel die. All loose powder was removed from the surface of the die. The intrinsic dissolution shaft was connected with the stainless-steel die and tightened so only one surface of the pellet was exposed (surface area=0.496 cm^2). The shaft in the spindle was adjusted to ensure the exposed surface of the compacted tablet was ˜3.8 cm from the bottom of the vessel when lowered. The temperature of chamber water was set at 37° C.±0.5° C., the shaft rotation at 100 rpm and the sampling time points at 2, 5, 10, 15, 30, 45, 60, 120 min. SGF was used as dissolution medium (900 mL). At each time point, solution samples were filtered, and the supernatant was analyzed by HPLC-UV.

[3] = Solubility in aqueous buffers and simulated fluids, 24 h, HPLC; details: for solubility at 24 h: 22.5 °C, thermodynamic from solid, ~20-25° C., read-out: Measured Conc. (solubility); for solubility at 24 h / Measured Conc. (solubility): ~24 h; for Measured Conc. (solubility): LOQ: 0.1 μg/mL
Protocol: About 2 mg of test article was added to a 1.5 mL vials which contained ˜1.0 mL of one medium listed in Table 7 and Table 8, which was then sealed. The mixtures were stirred at ˜20-25° C. for ˜24 hours. After that, the mixture was filtered by 0.45 μm filter membrane and then the supernatant was analyzed by HPLC.

[4] = HPLC analysis of degradation of TPA023B with acids in acetone (salt screening)
Protocol: Salt screening via reaction crystallization was preliminarily conducted using five acids in four solvents or solvent mixtures. […] For p-toluenesulfonic acid, about 20 mg of TPA023B and about 1.1 molar equivalents of the corresponding acid were stirred in about 0.5 mL of each solvent. For controls, about 20 mg of TPA023B was stirred in about 0.5 mL of the corresponding solvent. The resulting mixture was heated to about 50° C. with continuous stirring for about 4 hrs and slowly cooled to about 20-25° C. overnight.
HPLC analysis was conducted on the acetone samples to determine the extent of degradation that occurred, if any.

[5] = pKa measurement by pH metric method; details: protonated TPA023B; titrated pH 2 to pH 12, extrapolated to aqueous pKa
Protocol: 10 mg of TPA023B was used for the pKa measurement.
ISA Water (Ionic Strength Adjusted Water, 0.15 M KCl): Accurately weigh 5.591 g KCl into a 500 mL volumetric flask, dissolve the sample with water, add to volume and mix well. Cosolvent of 60% (v/v) DMSO. Dissolve 2.795 g potassium chloride in 100 mL distilled or deionised water and make up to 250 mL with analytical grade DMSO (Ionic strength adjusted DMSO solution).
Cosolvent of 80% (v/v) MeOH: Dissolve 2.795 g potassium chloride in 50 mL distilled or deionized water and make up to 250 mL with analytical grade MeOH (Ionic strength adjusted MeOH solution).
pKa Determination by pH Metric Method (with or without Co-Solvent):
About 1 mg of sample was weighed into a sample vial, about 1.5 mL of ISA water or 1.5 mL of co-solvent (80% MeOH or 60% DMSO) was added into the vial automatically. The sample solution pre-acidified to pH 2.0 with 0.5 M HCl by the instrument automatically, then titrated three times with base to get pKa value from pH 2 to pH 12, and then extrapolated to get aqueous pKa value. Using this method, the pKa of TPA023B was determined to be 2.19.

[6] = Approximate solubility of TPA023B in organic solvents; details: thermodynamic from solid; for solubility at 4 h: 25 °C, RT; for solubility: 50° C.
Protocol: About 25 mg of compound (TPA023B) was added to a 2.0 mL vial containing 0.5 mL of each organic solvent in Table 14, which was then sealed. The mixtures were stirred-mixed at 800 rpm, RT (25° C.) for 4 hours. After that, if the compound was not completely dissolved in the solvent, the mixture was then stirred-mixed at 800 rpm, 50° C. overnight. If the final mixture was clear solution, the solution would be evaporated by vacuum drying oven at 35° C. and the resulted solid would be checked by XRPD. If the final mixture was slurry, the slurry would be centrifuged at 14000 rpm for 5 minutes and then the residues would be dried by vacuum drying oven at 35° C. and checked by XRPD.

[7] = pH 3.0 citrate buffer (100 mM), initial pH 3.05
[8] = pH 4.5 citrate buffer (100 mM), initial pH 4.44
[9] = pH 7.4 PBS (50 mM), initial pH 7.40
[10] = pH 9.0 USP Buffer (50 mM), initial pH 8.94
[11] = organic solvent or mixture, 1,4-Dioxane
[12] = organic solvent or mixture, THF

Purity (%) ([1]; 40° C./75% RH (open), 1 week): 98.64%
Assay (%) ([1]; 40° C./75% RH (open), 1 week): 102.35%
Purity (%) ([1]; 80° C. (open), 1 week): 98.62%
Assay (%) ([1]; 80° C. (open), 1 week): 101.60%
Purity (%) ([1]; Initial): 98.72%
Assay (%) ([1]; Initial): 105.51%
Purity (%) ([1]; Light, ~50 h): 98.60%
Assay (%) ([1]; Light, ~50 h): 104.28%
intrinsic dissolution rate [2]: 5×10^−5 mg cm^2 min-t
solubility at 24 h ([3]; pH 1.8, simulated gastric fluid, SGF, initial pH 1.80): 0.00138 mg/mL (≈ 0.00353 mM)
solubility at 24 h ([3]; simulated gastric fluid, pH 1.2 Hydrochloric Acid Buffer (50 mM), initial pH 1.17): 0.00977 mg/mL (≈ 0.025 mM)
solubility at 24 h ([3]; FaSSIF, initial pH 6.51): 0.00211 mg/mL (≈ 0.00539 mM)
solubility at 24 h ([3]; FeSSIF, initial pH 5.00): 0.00963 mg/mL (≈ 0.0246 mM)
solubility at 24 h ([3]; Purified water, initial pH 7.02, target 2 mg/mL): 0.00014 mg/mL (≈ 0.000358 mM)
pH value of supernatant ([3]; FaSSIF, initial pH 6.51): 6.50
pH value of supernatant ([3]; FeSSIF, initial pH 5.00): 5.02
pH value of supernatant ([3]; Purified water, initial pH 7.02): 8.73
pH value of supernatant ([3]; SGF, initial pH 1.80): 1.86
pH value of supernatant ([3]; pH 1.2 Hydrochloric Acid Buffer (50 mM), initial pH 1.17): 1.12
pH value of supernatant [3, 7]: 3.00
Measured Conc. (solubility) [3, 7]: <LOQ
pH value of supernatant [3, 8]: 4.45
Measured Conc. (solubility) [3, 8]: <LOQ
pH value of supernatant [3, 9]: 7.42
Measured Conc. (solubility) [3, 9]: <LOQ
pH value of supernatant [3, 10]: 8.98
Measured Conc. (solubility) [3, 10]: <LOQ
SMILES: CC(C)(O)c1cnn2c(-c3ccc(F)c(-c4c(F)cccc4C#N)c3)cnc2n1 [Free Base Polymorphic Form A, 2′,6-difluoro-5′-[3-(1-hydroxy-1-methylethyl)-imidazo[1,2-b][1,2,4]triazin-7-yl]biphenyl-2-carbonitrile]

Purity (%) ([4]; control in acetone, 50° C. about 4 hrs): 99.33%
Purity (%) ([4]; with H2SO4 in acetone): 98.33%
Purity (%) ([4]; with H3PO4 in acetone): 98.88%
Purity (%) ([4]; with HCl in acetone): 98.61%
Purity (%) ([4]; with methane sulfonic acid in acetone): 98.71%
Purity (%) ([4]; with p-toluene sulfonic acid in acetone): 98.65%
pKa [5]: ~2.19
solubility at 4 h [6, 11]: < 50 mg/mL
solubility at 4 h ([6]; organic solvent or mixture, DMF): > 50 mg/mL
solubility at 4 h ([6]; organic solvent or mixture, DMSO): > 50 mg/mL
solubility at 4 h [6, 12]: < 50 mg/mL
solubility ([6]; aqueous with cosolvent or surfactant or cyclodextrin, Acetone/H2O (1/1, v/v)): < 50 mg/mL
solubility ([6]; aqueous with cosolvent or surfactant or cyclodextrin, EtOH/H2O (1/1, v/v)): < 50 mg/mL
solubility [6, 11]: > 50 mg/mL
solubility ([6]; organic solvent or mixture, Acetone): < 50 mg/mL
solubility ([6]; organic solvent or mixture, Acetonitrile (ACN)): < 50 mg/mL
solubility ([6]; organic solvent or mixture, DCM): < 50 mg/mL
solubility ([6]; organic solvent or mixture, EtOAc): < 50 mg/mL
solubility ([6]; organic solvent or mixture, Ethanol): < 50 mg/mL
solubility ([6]; organic solvent or mixture, Heptane): < 50 mg/mL
solubility ([6]; organic solvent or mixture, Isopropanol): < 50 mg/mL
solubility ([6]; organic solvent or mixture, MEK): < 50 mg/mL
solubility ([6]; organic solvent or mixture, MTBE): < 50 mg/mL
solubility ([6]; organic solvent or mixture, Methanol): < 50 mg/mL
solubility [6, 12]: > 50 mg/mL
solubility ([6]; organic solvent or mixture, Toluene): < 50 mg/mL
solubility ([6]; water, H2O): < 50 mg/mL
SMILES: CC(C)(O)c1cnn2c(-c3ccc(F)c(-c4c(F)cccc4C#N)c3)cnc2n1 [TPA023B, 2′,6-difluoro-5′-[3-(1-hydroxy-1-methylethyl)-imidazo[1,2-b][1,2,4]triazin-7-yl]biphenyl-2-carbonitrile]

From patent US11542263B2 (NeuroCycle Therapeutics, Inc., priority 2018, dated 2023)
